In article PMC7287874 (2020) one finds KD and binding data, which are given here for 18 molecules.

The KD is a measure of binding affinity in units of concentration.

Assay [1] deals with GR wild type (xpt-pbuX guanine riboswitch aptamer) (RNA, riboswitch) GGACAUAUAAUCGCGUGGAUAUGGCACGCAAGUUUCUACCGGGCACCGUAAAUGUCCGACUAUGUCCA
Put plainly: ITC. As to conditions: 100 mM KCl, 20 mM MgCl2, 50 mM K-HEPES, pH 7.5, 25 °C; for KD: single-site fit; for binding: no binding, highest concentration for this compound not stated.

The subject of assay [2] is GR(A19C-U77G) (RNA, riboswitch) GGACCUAUAAUCGCGUGGAUAUGGCACGCAAGUUUCUACCGGGCACCGUAAAUGUCCGACUAGGUCCA
Put plainly: ITC. As to conditions: 100 mM KCl, 20 mM MgCl2, 50 mM K-HEPES; pH 7.5, 25 °C, single-site fit.

Assay [3] concerns GR RNA, crystallized (RNA, riboswitch) GGACAUAUAAUCGCGUGGAUAUGGCACGCAAGUUUCUACCGGGCACCGUAAAUGUCCGACUAUGUCC
Put plainly: X-ray crystallography. Conditions: cobalt hexammine 30–50 mM, ammonium acetate 600–650 mM, 10 mM K-HEPES pH 7.5, PEG 3000, 24 °C.

The subject of assay [4] is GR(C74U) (RNA, riboswitch) GGACAUAUAAUCGCGUGGAUAUGGCACGCAAGUUUCUACCGGGCACCGUAAAUGUCCGAUUAUGUCCA
As to the kind of experiment: ITC. Conditions: 100 mM KCl, 20 mM MgCl2, 50 mM K-HEPES; pH 7.5, 25 °C, single-site fit.

Assay [5] deals with GR(C74G) (RNA, riboswitch) GGACAUAUAAUCGCGUGGAUAUGGCACGCAAGUUUCUACCGGGCACCGUAAAUGUCCGAGUAUGUCCA
As to the kind of experiment: ITC. Conditions: 100 mM KCl, 20 mM MgCl2, 50 mM K-HEPES; pH 7.5, 25 °C, single-site fit.

In assay [6] the test system is GR(C74A) (RNA, riboswitch) GGACAUAUAAUCGCGUGGAUAUGGCACGCAAGUUUCUACCGGGCACCGUAAAUGUCCGAAUAUGUCCA
Put plainly: ITC. As to conditions: 100 mM KCl, 20 mM MgCl2, 50 mM K-HEPES; pH 7.5, 25 °C, single-site fit.

Assay [7] relates to GR A19G U77C (RNA, riboswitch) GGACGUAUAAUCGCGUGGAUAUGGCACGCAAGUUUCUACCGGGCACCGUAAAUGUCCGACUACGUCCA
As to the kind of experiment: ITC. Conditions: 100 mM KCl, 20 mM MgCl2, 50 mM K-HEPES; pH 7.5, 25 °C, single-site fit.

Assay [8] deals with GR A19G U77 (RNA, riboswitch) GGACGUAUAAUCGCGUGGAUAUGGCACGCAAGUUUCUACCGGGCACCGUAAAUGUCCGACUAUGUCCA
Put plainly: ITC. As to conditions: 100 mM KCl, 20 mM MgCl2, 50 mM K-HEPES; pH 7.5, 25 °C, single-site fit.

In assay [9] the test system is GR A19U U77A (RNA, riboswitch) GGACUUAUAAUCGCGUGGAUAUGGCACGCAAGUUUCUACCGGGCACCGUAAAUGUCCGACUAAGUCCA
As to the kind of experiment: ITC. As to conditions: 100 mM KCl, 20 mM MgCl2, 50 mM K-HEPES; pH 7.5, 25 °C, single-site fit.

Assay [10] relates to GR A19C C74U U77G (RNA, riboswitch) GGACCUAUAAUCGCGUGGAUAUGGCACGCAAGUUUCUACCGGGCACCGUAAAUGUCCGAUUAGGUCCA
Put plainly: ITC. Conditions: 100 mM KCl, 20 mM MgCl2, 50 mM K-HEPES; pH 7.5, 25 °C, single-site fit.

Assay [11] deals with GR A19G C74U U77C (RNA, riboswitch) GGACGUAUAAUCGCGUGGAUAUGGCACGCAAGUUUCUACCGGGCACCGUAAAUGUCCGAUUACGUCCA
Put plainly: ITC. As to conditions: 100 mM KCl, 20 mM MgCl2, 50 mM K-HEPES; pH 7.5, 25 °C, single-site fit.

Assay [12] relates to GR A19U C74U U77A (RNA, riboswitch) GGACUUAUAAUCGCGUGGAUAUGGCACGCAAGUUUCUACCGGGCACCGUAAAUGUCCGAUUAAGUCCA
As to the kind of experiment: ITC. As to conditions: 100 mM KCl, 20 mM MgCl2, 50 mM K-HEPES; pH 7.5, 25 °C, single-site fit.

Turning to `Nc1nc(NC2CC2)c2nc[nH]c2n1`, the KD in assay [1] is listed as 25,000 ± 3000 nM.
For `Nc1nc2[nH]cnc2c(=O)[nH]1`, the results for the KD in assay [1] and in assay [2] were 2.1 ± 0.7 nM and 0.85 ± 0.31 nM, respectively. Moreover, the binding entry in assay [3] (1.6 Å) is recorded as “yes”.
For the molecule `Nc1nc2[nH]c(N)nc2c(=O)[nH]1`, the dissociation constant (KD) in assay [1] was found to be 36 ± 13 nM. Moreover, the binding result in assay [3] is “yes”.
As for `CC(C)C(=O)Nc1nc2[nH]cnc2c(=O)[nH]1`, the figures for the KD in assay [1] and in assay [2] were 7.4 ± 0.5 nM and 4.5 ± 2.0 nM, respectively.
On to `CC1CC(O)n2c(nc3[nH]cnc3c2=O)N1` (stereo not shown), for which, in assay [1], the KD is 79,000 ± 1000 nM.
In assay [1], `Nc1nc2[nH]c(O)nc2c(=O)[nH]1` had a KD of 10 ± 4 nM.
The same measure, in the same setting: for `Nc1nc2c(=O)[nH]cnc2[nH]1` the value was 14,000 ± 1000 nM; for `NS(=O)(=O)c1ccc(Nc2nc(OCC3CCCCC3)c3nc[nH]c3n2)cc1`, 5600 ± 600 nM.
Same read-out and setting: for `COc1nc(N)nc2[nH]cnc12` the value was 6400 ± 400 nM.
As to `O=C(COc1ccccc1)Nc1nc2[nH]cnc2c(=O)[nH]1`, the KD in assay [1] is given as 8.8 ± 0.5 nM; in assay [4], 7500 ± 800 nM; in assay [5], 42,000 ± 2000 nM; in assay [6] it was 85,000 ± 25,000 nM; in assay [2] it was 2.2 ± 0.6 nM; in assay [7], 4.9 ± 1.2 nM. Moreover, the KD is reported as 5.4 ± 1.2 nM in [8]; 7.8 ± 1.6 nM in assay [9]; 4100 ± 400 nM in assay [10]; 44,000 ± 4000 nM in assay [11]; 66,000 ± 5000 nM in assay [12].
With `Nc1nc(OCc2ccccc2)c2[nH]cnc2n1`, the binding entry in [1] was “no”.
Take `CNc1nc2[nH]cnc2c(=O)[nH]1`: in assay [1], the KD is on record as 17,000 ± 1000 nM.
As for `Nc1nc(OCC2CCCCC2)c2[nH]cnc2n1`, the KD in assay [1] is 17,000 ± 1000 nM. Further, the binding result in assay [3] was “yes”.
Turning to `CC(C)(C)C(=O)Nc1nc2[nH]cnc2c(=O)[nH]1`, in assay [1], the KD is listed as 230,000 ± 10,000 nM.
For the molecule `CC(=O)Nc1nc2[nH]cnc2c(=O)[nH]1`, in assay [1], the KD is listed as 300 ± 10 nM. Further, the binding entry in [3] is “yes”.
Regarding `Nc1nc(Cl)c2[nH]cnc2n1`, the dissociation constant KD in assay [1] is reported as 340 ± 30 nM.
As for `O=c1c2[nH]cnc2nc2ncccn12`, the binding result in assay [1] is on record as “no”.
Take `O=c1[nH]cnc2nc[nH]c12`: the KD in assay [1] was found to be 240 ± 30 nM.
